Data as given in patent publication US9908868B2, “Isoindolinone compounds as GPR119 modulators for the treatment of diabetes, obesity, dyslipidemia and related disorders” (SANOFI, priority 2014, dated 2018).

Molecular target: T1, human GPR119 (Homo sapiens, UniProt Q8TDV5)
T1 construct: expressed in transfected cells
T1 sequence (Q8TDV5 1-335): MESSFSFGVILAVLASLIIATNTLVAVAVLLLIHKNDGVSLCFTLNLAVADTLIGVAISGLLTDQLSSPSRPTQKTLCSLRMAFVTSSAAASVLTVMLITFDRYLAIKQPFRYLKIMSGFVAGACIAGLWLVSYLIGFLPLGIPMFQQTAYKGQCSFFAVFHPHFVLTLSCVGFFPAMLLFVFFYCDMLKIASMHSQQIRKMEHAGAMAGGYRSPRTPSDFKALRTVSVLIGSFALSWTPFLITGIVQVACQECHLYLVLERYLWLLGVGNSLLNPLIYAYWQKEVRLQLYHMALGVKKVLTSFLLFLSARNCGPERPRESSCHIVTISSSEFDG
Assay: Functional cellular assay measuring GPR119-mediated cAMP release (HTRF) in HEK-293 cells stably expressing recombinant human GPR119
Format: cell-based
Details: cAMP response, cell line expressing human GPR119, 30 minutes at room temperature
In short: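 HEK-293 cells stably expressing recombinant human GPR119, suspended at 400000 cells/mL in HBSS/20 mM HEPES/0.1% BSA/2 mM IBMX, exposed to compound for 30 minutes at room temperature. cAMP detected by HTRF (665/620 nm ratio) after 1 h with reagents in lysis buffer. EC50 taken as concentration giving 50% of maximal activation.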

Row | Structure (SMILES) | EC50
1 | CS(=O)(=O)CN1Cc2ncc(N3CC[C@@H](Oc4ccc(C(=O)C5CC5)cc4)C3=O)cc2C1=O [Example 1-62, 3-[(3R)-3-[4-(cyclopropanecarbonyl)phenoxy]-2-oxo-pyrrolidin-1-yl]-6-(methylsulfonylmethyl)-7H-pyrrolo[3,4-b]pyridin-5-one] | 139 nM
2 | COC(=O)CN1Cc2ccc(N3CC[C@@H](Oc4ccc(OCC5CC5)nc4)C3=O)cc2C1=O [Example 1-40, methyl 2-[6-[(3R)-3-[[6-(cyclopropylmethoxy)-3-pyridyl]oxy]-2-oxo-pyrrolidin-1-yl]-1-oxo-isoindolin-2-yl]acetate] | 44 nM
3 | CN(C)C(=O)CN1Cc2ccc(N3CC[C@@H](Oc4ccc(C(=O)C5CC5)c(F)c4)C3=O)cc2C1=O [Example 2-62, 2-[6-[(3R)-3-[4-(cyclopropanecarbonyl)-3-fluoro-phenoxy]-2-oxo-pyrrolidin-1-yl]-1-oxo-isoindolin-2-yl]-N,N-dimethyl-acetamide] | 59 nM
4 | COC(=O)CN1Cc2ccc(N3CC[C@@H](Oc4ccc(OC5CC5)nc4)C3=O)cc2C1=O [Example 1-22, methyl 2-[6-[(3R)-3-[[6-(cyclopropoxy)-3-pyridyl]oxy]-2-oxo-pyrrolidin-1-yl]-1-oxo-isoindolin-2-yl]acetate] | 242 nM
5 | CCOc1ccc(O[C@@H]2CCN(c3cc(F)c4c(c3)C(=O)N(CC(=O)N3CCC(O)CC3)C4)C2=O)cn1 [Example 4-19, 6-[(3R)-3-[(6-ethoxy-3-pyridyl)oxy]-2-oxo-pyrrolidin-1-yl]-4-fluoro-2-[2-(4-hydroxy-1-piperidyl)-2-oxo-ethyl]isoindolin-1-one] | 297 nM
6 | CC1(C(=O)c2ccc(O[C@@H]3CCN(c4ccc5c(c4)C(=O)N(CC(N)=O)C5)C3=O)cc2)CC1 [Example 2-55, 2-[6-[(3R)-3-[4-(1-methylcyclopropanecarbonyl)phenoxy]-2-oxo-pyrrolidin-1-yl]-1-oxo-isoindolin-2-yl]acetamide] | 207 nM
7 | CCOc1ccc(O[C@@H]2CCN(c3cc(F)c4c(c3)C(=O)N(CC(=O)NCCOC)C4)C2=O)cn1 [Example 4-18, 2-[6-[(3R)-3-[(6-ethoxy-3-pyridyl)oxy]-2-oxo-pyrrolidin-1-yl]-4-fluoro-1-oxo-isoindolin-2-yl]-N-(2-methoxyethyl)acetamide] | 381 nM
8 | CS(=O)(=O)CN1Cc2ccc(N3CC[C@@H](Oc4ccc(C(=O)C5CC5)nc4)C3=O)cc2C1=O [Example 1-59, 6-[(3R)-3-[[6-(cyclopropanecarbonyl)-3-pyridyl]oxy]-2-oxo-pyrrolidin-1-yl]-2-(methylsulfonylmethyl)isoindolin-1-one] | 451 nM
9 | CN(C)C(=O)Cn1c(=O)c2cc(N3CC[C@H](Oc4ccc(OCC5CC5)nc4)C3=O)ccc2n1C [Example 1-26, 2-[5-[(3S)-3-[[6-(cyclopropylmethoxy)-3-pyridyl]oxy]-2-oxo-pyrrolidin-1-yl]-1-methyl-3-oxo-indazol-2-yl]-N,N-dimethyl-acetamide] | 14200 nM
10 | CN(C)C(=O)CN1Cc2ncc(N3CC[C@@H](Oc4ccc(OCC(F)(F)F)nc4)C3=O)cc2C1=O [Example 1-49, N,N-dimethyl-2-[5-oxo-3-[(3R)-2-oxo-3-[[6-(2,2,2-trifluoroethoxy)-3-pyridyl]oxy]pyrrolidin-1-yl]-7H-pyrrolo[3,4-b]pyridin-6-yl]acetamide] | 106 nM
11 | O=C(CN1Cc2c(F)cc(N3CC[C@@H](Oc4ccc(OCC5CC5)nc4)C3=O)cc2C1=O)NCCO [Example 4-24, 2-[6-[(3R)-3-[[6-(cyclopropylmethoxy)-3-pyridyl]oxy]-2-oxo-pyrrolidin-1-yl]-4-fluoro-1-oxo-isoindolin-2-yl]-N-(2-hydroxyethyl)acetamide] | 266 nM
12 | O=C(CN1Cc2ccc(N3CC[C@@H](Oc4ccc(OCC(F)(F)F)nc4)C3=O)cc2C1=O)NC1CC1 [Example 4-36, N-cyclopropyl-2-[1-oxo-6-[(3R)-2-oxo-3-[[6-(2,2,2-trifluoroethoxy)-3-pyridyl]oxy]pyrrolidin-1-yl]isoindolin-2-yl]acetamide] | 562 nM
13 | COCCNC(=O)CN1Cc2c(F)cc(N3CC[C@@H](Oc4ccc(OCCC5CC5)nc4)C3=O)cc2C1=O [Example 4-20, 2-[6-[(3R)-3-[[6-(2-cyclopropylethoxy)-3-pyridyl]oxy]-2-oxo-pyrrolidin-1-yl]-4-fluoro-1-oxo-isoindolin-2-yl]-N-(2-methoxyethyl)acetamide] | 62 nM
14 | O=C(CN1Cc2c(F)cc(N3CC[C@@H](Oc4ccc(OCCC5CC5)nc4)C3=O)cc2C1=O)N1CCCC1 [Example 4-26, 6-[(3R)-3-[[6-(2-cyclopropylethoxy)-3-pyridyl]oxy]-2-oxo-pyrrolidin-1-yl]-4-fluoro-2-(2-oxo-2-pyrrolidin-1-yl-ethyl)isoindolin-1-one] | 48 nM
15 | NC(=O)CN1Cc2ccc(N3CC[C@@H](Oc4ccc(C(=O)c5ccc(F)cc5)cc4)C3=O)cc2C1=O [Example 2-50, 2-[6-[(3R)-3-[4-(4-fluorobenzoyl)phenoxy]-2-oxo-pyrrolidin-1-yl]-1-oxo-isoindolin-2-yl]acetamide] | 102 nM

The remaining molecules from weak to strong by EC50, led by results:

Row | EC50 | Structure (SMILES)
16 | 4440 nM | CC1c2ccc(N3CC[C@@H](Oc4ccc(OCC5CC5)nc4)C3=O)cc2C(=O)N1CC(=O)O (stereo partly drawn) [Example 1-14, 2-[5-[(3R)-3-[[6-(cyclopropylmethoxy)-3-pyridyl]oxy]-2-oxo-pyrrolidin-1-yl]-1-methyl-3-oxo-isoindolin-2-yl]acetic acid]
17 | 739 nM | CN(C)C(=O)CN1Cc2ccc(N3CC[C@@H](Oc4ccc(F)cc4)C3=O)cc2C1=O [Example 2-09, 2-[6-[(3R)-3-(4-fluorophenoxy)-2-oxo-pyrrolidin-1-yl]-1-oxo-isoindolin-2-yl]-N,N-dimethyl-acetamide]
18 | 516 nM | C[S+]([O-])CN1Cc2ncc(N3CC[C@@H](Oc4ccc(C(=O)C5CC5)cc4)C3=O)cc2C1=O (stereo partly drawn) [Example 1-61, 3-[(3R)-3-[4-(cyclopropanecarbonyl)phenoxy]-2-oxo-pyrrolidin-1-yl]-6-(methylsulfinylmethyl)-7H-pyrrolo[3,4-b]pyridin-5-one]
19 | 131 nM | C[S@@+]([O-])CN1Cc2ncc(N3CC[C@@H](Oc4ccc(OCC(F)(F)F)nc4)C3=O)cc2C1=O [Example 1-69, 6-((R)-methanesulfinylmethyl)-3-{(R)-2-oxo-3-[6-(2,2,2-trifluoro-ethoxy)-pyridin-3-yloxy]-pyrrolidin-1-yl}-6,7-dihydro-pyrrolo[3,4-b]pyridin-5-one]
20 | 107 nM | CNC(=O)CN1Cc2ccc(N3CC[C@@H](Oc4ccc(OCC5CC5)nc4)C3=O)cc2C1=O [Example 4-09, 2-[6-[(3R)-3-[[6-(cyclopropylmethoxy)-3-pyridyl]oxy]-2-oxo-pyrrolidin-1-yl]-1-oxo-isoindolin-2-yl]-N-methyl-acetamide]
21 | 66 nM | CN(C)C(=O)CN1Cc2ccc(N3CC[C@@H](Oc4ccc(C(=O)c5ccc(F)cc5)cc4)C3=O)cc2C1=O [Example 2-15, 2-[6-[(3R)-3-[4-(4-fluorobenzoyl)phenoxy]-2-oxo-pyrrolidin-1-yl]-1-oxo-isoindolin-2-yl]-N,N-dimethyl-acetamide]
22 | 46 nM | CSCN1Cc2c(F)cc(N3CC[C@@H](Oc4ccc(OCC5CC5)nc4)C3=O)cc2C1=O [Example 1-20, 6-[(3R)-3-[[6-(cyclopropylmethoxy)-3-pyridyl]oxy]-2-oxo-pyrrolidin-1-yl]-4-fluoro-2-(methylsulfanylmethyl)isoindolin-1-one]
